# Measured values: ChEMBL document CHEMBL4049386, “Discovery of an Inhibitor of the Proteasome Subunit Rpn11” (J Med Chem, 2017)
# Assays:
# [1] = target: T1, 26S proteasome non-ATPase regulatory subunit 14 (Homo sapiens, UniProt O00487); assay: Inhibition of 26S proteasome regulatory subunit RPN11 deubiquitinating activity in human erythrocytes using Ub4-pepOG protein substrate preincubated for 1 hr followed by substrate addition measured after 80 mins by fluorescence polarization assay
# HCT-116 = assay: cells; conditions: Homo sapiens, HCT-116, 72 h
# Description: Antiproliferative activity against human HCT116 cells after 72 hrs by Cell Titer-Glo assay
# [2] = target: COP9 signalosome complex subunit 5 (Homo sapiens, UniProt Q92905); assay: Inhibition of CSN5 (unknown origin) using SCFskp2-Nedd8OG as substrate after 1 hr by fluorescence polarization assay
# [3] = target: T1, 26S proteasome non-ATPase regulatory subunit 14; assay: Inhibition of 26S proteasome regulatory subunit RPN11 deubiquitinating activity in beta5 inhibitor MG132 pretreated human HeLa cells expressing UbG76V-GFP assessed as reduction in UbG76V-GFP degradation rate by fluorescence microscopic method; assay type: cell-based
# STAM-binding protein = target: T2, STAM-binding protein (Homo sapiens, UniProt O95630); assay: Inhibition of AMSH (unknown origin) using DiUbK63TAMRA as substrate by fluorescence assay
# T2 sequence (O95630 whole entry): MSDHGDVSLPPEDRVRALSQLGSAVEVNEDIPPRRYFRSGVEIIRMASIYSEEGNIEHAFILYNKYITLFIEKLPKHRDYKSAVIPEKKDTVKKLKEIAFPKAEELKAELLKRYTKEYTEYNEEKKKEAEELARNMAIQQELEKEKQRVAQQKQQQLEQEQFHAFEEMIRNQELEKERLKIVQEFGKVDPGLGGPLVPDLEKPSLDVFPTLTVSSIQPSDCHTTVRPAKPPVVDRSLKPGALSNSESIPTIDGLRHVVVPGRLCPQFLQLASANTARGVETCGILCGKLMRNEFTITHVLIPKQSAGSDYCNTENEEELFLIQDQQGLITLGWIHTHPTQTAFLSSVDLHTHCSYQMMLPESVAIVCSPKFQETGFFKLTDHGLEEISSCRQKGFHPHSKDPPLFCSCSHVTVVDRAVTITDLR
# [4] = Aqueous solubility of the compound; assay type: physicochemical; conditions: buffer
# [5] = target: 72 kDa type IV collagenase (Homo sapiens, UniProt P08253); assay: Inhibition of recombinant human MMP2 catalytic domain (Tyr110 to Asp452 residues) expressed in yeast using Mca-Pro-Leu-Gly-Leu-Dpa-Ala-Arg-NH2.AcOH as substrate preincubated for 30 mins followed by substrate addition measured every minute for 20 mins by fluorescence assay
# Sequence of 72 kDa type IV collagenase (P08253 whole entry, the tested form may be a part): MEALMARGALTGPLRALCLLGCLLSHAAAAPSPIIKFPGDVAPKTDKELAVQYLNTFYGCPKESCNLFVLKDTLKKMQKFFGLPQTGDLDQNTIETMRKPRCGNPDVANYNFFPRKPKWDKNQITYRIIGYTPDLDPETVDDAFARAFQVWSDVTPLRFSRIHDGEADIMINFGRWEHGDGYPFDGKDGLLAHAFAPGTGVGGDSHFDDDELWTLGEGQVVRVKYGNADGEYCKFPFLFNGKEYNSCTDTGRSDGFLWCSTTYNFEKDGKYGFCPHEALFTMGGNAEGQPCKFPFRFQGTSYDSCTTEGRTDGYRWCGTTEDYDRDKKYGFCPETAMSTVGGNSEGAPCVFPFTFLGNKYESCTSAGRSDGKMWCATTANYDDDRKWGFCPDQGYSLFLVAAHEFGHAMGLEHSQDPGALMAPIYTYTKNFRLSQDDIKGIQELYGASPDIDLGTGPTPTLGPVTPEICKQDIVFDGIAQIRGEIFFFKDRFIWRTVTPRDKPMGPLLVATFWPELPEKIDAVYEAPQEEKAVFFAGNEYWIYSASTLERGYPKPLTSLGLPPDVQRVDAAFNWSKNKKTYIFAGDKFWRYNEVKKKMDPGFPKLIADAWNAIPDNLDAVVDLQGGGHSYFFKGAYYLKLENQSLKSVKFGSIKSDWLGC
# T1 sequence (O00487 whole entry): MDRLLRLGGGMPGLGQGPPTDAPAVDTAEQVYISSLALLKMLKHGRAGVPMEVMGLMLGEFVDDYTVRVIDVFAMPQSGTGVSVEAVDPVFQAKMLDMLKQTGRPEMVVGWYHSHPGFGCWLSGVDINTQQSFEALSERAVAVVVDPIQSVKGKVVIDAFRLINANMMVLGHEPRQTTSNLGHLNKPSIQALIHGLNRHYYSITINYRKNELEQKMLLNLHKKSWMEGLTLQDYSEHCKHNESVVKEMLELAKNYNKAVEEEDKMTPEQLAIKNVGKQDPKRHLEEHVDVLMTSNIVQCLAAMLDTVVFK
# Sequence of COP9 signalosome complex subunit 5 (Q92905 whole entry, one chain of several): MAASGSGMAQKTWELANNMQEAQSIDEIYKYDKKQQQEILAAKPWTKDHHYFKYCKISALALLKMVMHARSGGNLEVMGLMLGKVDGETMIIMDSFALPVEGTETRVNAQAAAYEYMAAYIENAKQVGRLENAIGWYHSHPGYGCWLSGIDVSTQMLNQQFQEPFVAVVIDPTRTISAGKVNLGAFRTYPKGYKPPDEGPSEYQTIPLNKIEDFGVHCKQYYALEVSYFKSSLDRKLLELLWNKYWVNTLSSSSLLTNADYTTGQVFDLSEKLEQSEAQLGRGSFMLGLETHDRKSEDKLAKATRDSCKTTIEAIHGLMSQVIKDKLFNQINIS
IC50 [1] [µM],IC50 (HCT-116) [µM],IC50 [2] [µM],IC50 [3] [µM],IC50 (STAM-binding protein) [µM],solubility [4],IC50 [5] [µM],Structure (SMILES)
,,24,,,Soluble,,O=C(NCc1nccs1)c1cnc2c(SSc3cccc4cc(C(=O)NCc5nccs5)cnc34)cccc2c1
> 5,,> 30,> 10,3.5,,,O=C(CNC(=O)c1cnc2c(SSc3cccc4cc(C(=O)NCC(=O)NCC(=O)OCc5ccccc5)cnc34)cccc2c1)NCC(=O)OCc1ccccc1
> 2,,> 100,> 0.3,2.2,,,COC(=O)CNC(=O)c1cnc2c(SSc3cccc4cc(C(=O)NCC(=O)OC)cnc34)cccc2c1
< 0.2,,,> 10,,Insoluble,,COc1ccc(CNC(=O)c2cnc3c(SSc4cccc5cc(C(=O)NCc6ccc(OC)cc6)cnc45)cccc3c2)cc1
> 100,,,,,,,O=C(NCc1ccccc1)c1ccc2cccc(SSc3cccc4ccc(C(=O)NCc5ccccc5)nc34)c2n1
0.9,,,,,,,COC(=O)c1cnc2c(SSc3cccc4cc(C(=O)OC)cnc34)cccc2c1
< 0.2,,,> 10,0.9,Insoluble,,O=C(NCc1ccc(F)cc1)c1cnc2c(SSc3cccc4cc(C(=O)NCc5ccc(F)cc5)cnc34)cccc2c1
1.1,,,,,,,O=C(O)c1cnc2c(SSc3cccc4cc(C(=O)O)cnc34)cccc2c1
3.2,,> 100,> 10,,Soluble,,O=C(NCc1cccnc1)c1cnc2c(SSc3cccc4cc(C(=O)NCc5cccnc5)cnc34)cccc2c1
0.8,,> 100,> 10,3.5,Insoluble,,O=C(NCc1ccc(C(F)(F)F)cc1)c1cnc2c(SSc3cccc4cc(C(=O)NCc5ccc(C(F)(F)F)cc5)cnc34)cccc2c1
,,,> 10,< 0.2,Insoluble,,O=C(NCc1ccc2c(c1)OCO2)c1cnc2c(SSc3cccc4cc(C(=O)NCc5ccc6c(c5)OCO6)cnc34)cccc2c1
,,15.3,1.2,1.7,,,NC(=O)c1cnc2c(SSc3cccc4cc(C(N)=O)cnc34)cccc2c1
4,,> 50,> 10,17,Soluble,,O=C(NCc1ccccn1)c1cnc2c(SSc3cccc4cc(C(=O)NCc5ccccn5)cnc34)cccc2c1
,,,1.4,,Soluble,,O=C(NCCc1ccco1)c1cnc2c(SSc3cccc4cc(C(=O)NCCc5ccco5)cnc34)cccc2c1
0.2,,7,> 10,0.5,,,O=C(NCc1ccncc1)c1cnc2c(SSc3cccc4cc(C(=O)NCc5ccncc5)cnc34)cccc2c1
,,> 100,> 10,26,,,O=C(NCCN1CCOCC1)c1cnc2c(SSc3cccc4cc(C(=O)NCCN5CCOCC5)cnc34)cccc2c1
2.6,,15,> 10,5,Soluble,,O=C(Nc1ncco1)c1cnc2c(SSc3cccc4cc(C(=O)Nc5ncco5)cnc34)cccc2c1
,,,,4.1,,,CNC(=O)c1cnc2c(SSc3cccc4cc(C(=O)NC)cnc34)cccc2c1

# Second part, the compound before the results:
Structure (SMILES),IC50 [1] [µM],IC50 (HCT-116) [µM],IC50 [2] [µM],IC50 [3] [µM],IC50 (STAM-binding protein) [µM],solubility [4],IC50 [5] [µM]
Cc1cccc2cccnc12,> 100,> 100,,,,,
O=C(NCCc1nccs1)c1cnc2c(O)cccc2c1,> 40,,> 100,> 100,> 100,,
O=C(NCCc1cccs1)c1cnc2c(SSc3cccc4cc(C(=O)NCCc5cccs5)cnc34)cccc2c1,,,,5,,Soluble,
O=C(O)c1ccnc2c(SSc3cccc4c(C(=O)O)ccnc34)cccc12,1.3,,,,,,
Cc1ccc2cccc(S)c2n1,> 100,> 50,> 100,,,,> 200
Sc1cccc2ncccc12,> 100,> 100,,,,,
O=C(NCc1ccco1)c1cnc2c(SSc3cccc4cc(C(=O)NCc5ccco5)cnc34)cccc2c1,,,< 0.5,1,,Soluble,
O=C(NCc1cccs1)c1ccc2cccc(SSc3cccc4ccc(C(=O)NCc5cccs5)nc34)c2n1,> 100,,,,,,
O=C(NCCc1nccs1)c1ccc2c(SSc3cccc4nc(C(=O)NCCc5nccs5)ccc34)cccc2n1,> 100,,35,> 100,> 100,,
Sc1cccc2ccccc12,> 100,> 100,,,,,
O=C(O)c1ccc2cccc(SSc3cccc4ccc(C(=O)O)nc34)c2n1,> 20,,,,,,
O=C(NCc1ccccc1)c1cnc2c(SSc3cccc4cc(C(=O)NCc5ccccc5)cnc34)cccc2c1,,,,> 10,> 10,,
Nc1cccc2cccnc12 [8-AMINOQUINOLINE],> 100,,,,,,
COC(=O)c1ccc2cccc(SSc3cccc4ccc(C(=O)OC)nc34)c2n1,> 50,,,,,,
Oc1cccc2cccnc12 [OXYQUINOLINE],> 100,6,,,,,
COC(=O)c1ccnc2c(SSc3cccc4c(C(=O)OC)ccnc34)cccc12,1,,,,,,
O=C(NCc1cccs1)c1cnc2c(SSc3cccc4cc(C(=O)NCc5cccs5)cnc34)cccc2c1,,,,5,,Soluble,
O=C(NCC1CCCO1)c1cnc2c(SSc3cccc4cc(C(=O)NCC5CCCO5)cnc34)cccc2c1 (stereo not given),,,,1,,Soluble,
CSc1cccc2cccnc12,> 100,> 100,,,,,
O=C(NCc1cccs1)c1ccnc2c(SSc3cccc4c(C(=O)NCc5cccs5)ccnc34)cccc12,1,,,,,,
CSc1cccc2cc(C(=O)NCCc3nccs3)cnc12,> 40,,> 100,> 100,> 100,,
O=C(NCc1ccco1)c1ccnc2c(SSc3cccc4c(C(=O)NCc5ccco5)ccnc34)cccc12,2.2,,,,,,
